Results from patent US8318761B2, “Substituted arylsulfonamides as antiviral agents” (Aicuris GmbH & Co. KG, priority 2006, dated 2012).

Key:
[1] = test system: HCMV; assay: Anti-HCMV cytopathogenicity test (CPE inhibition); assay type: cell-based, human cytomegalovirus; conditions: for EC50: Human betaherpesvirus 5, 144 h, HCMV-infected NHDF cells, M.O.I. 0.001-0.003, 6 days, inhibition of CPE by 50%; for SI HCMV: selectivity index = CC50 (NHDF)/EC50 (HCMV)
Experimental: (§1) Anti-HCMV (Anti-Human Cytomegalovirus) Cytopathogenicity Tests The test compounds are employed as 50 millimolar (mM) solutions in dimethyl sulfoxide (DMSO). Ganciclovir® serves as reference compound. After the addition of 2 μl of the 50, 5, 0.5 and 0.05 mM DMSO stock solutions respectively to 98 μl portions of cell culture medium in row […] for duplicate determinations, 1:2 dilutions are carried out with 50 μl portions of medium up to row 11 of the 96-well plate. The wells in rows 1 and 12 each contain 50 μl of medium. 150 μl of a suspension of 1×10^4 cells (human prepuce fibroblasts [NHDF]) are then pipetted into each of the wells (row 1=cell control) and, in rows 2-12, a mixture of HCMV-infected and uninfected NHDF cells (M.O.I.=0.001-0.003), i.e. 1-3 infected cells per 1000 uninfected cells. Row 12 (without substance) serves as virus control. The final test concentrations are […]. The plates are incubated at 37° C./5% CO2 for 6 days, i.e. until all the cells in the virus controls are infected (100% cytopathogenic effect [CPE]). The wells are then fixed and stained by the addition of a mixture of formalin and Giemsa's dye (30 min), washed with bidistilled water and dried in a drying oven at 50° C. The plates are then assessed visually using an overhead microscope (plaque multiplier from Technomara). The following data can be obtained from the test plates: EC50 (HCMV)=substance concentration in MM which inhibits the CPE (cytopathic effect) by 50% in comparison with the untreated virus control; SI (selectivity index)=CC50 (NHDF)/EC50 (HCMV).

[2] = Anti-HCMV cytopathogenicity test, cytostatic effect on uninfected cells; assay type: cell-based; conditions: human, NHDF cells (human prepuce fibroblasts), 6 days incubation, visual assessment
Experimental: as §1, with “plates: CC50 (NHDF)=substance” for “plates: EC50 (HCMV)=substance”, “MM at” for “MM”, “which no visible cytostatic effects on” for “which inhibits”, “the cells are evident” for “the CPE (cytopathic effect) by 50%”, “untreated cell” for “untreated virus”, “control;” for “control; SI (selectivity index)=CC50 (NHDF)/EC50 (HCMV).”

[3] = Pharmacokinetical investigations after intravenous or oral administration; assay type: in vivo; conditions: male Wistar rat
Experimental: Pharmacokinetical Investigations
The pharmacokinetics of the active substances are investigated after intravenous or oral administration of doses in the range from 1 mg/kg intravenously and 3 mg/kg orally to three male Wistar rats per administration route. In order to make a repeated removal of blood possible a catheter is implanted into the jugular vein of the animals on the day before the experiment. The substances are administered intravenously as well as orally as a solution. Thereby, in most cases a plasma formulation (rat plasma with 1-2% ethanol or DMSO, 2 ml/kg) is used for the intravenous administration and a PEG formulation (10% ethanol, 40% PEG 400, 50% water, 5 ml/kg) is used for the oral administration.
After the administration of the active substance blood samples are collected over 24 h via the catheter into heparin-containing sample tubes. Subsequently to the removal of blood the blood samples are centrifuged and the plasma supernatant is pipetted into Eppendorf tubes. The plasma samples are stored at least −15° C. until the analysis takes place.
For the work-up the samples are thawed. The plasma proteins are subsequently precipitated by the addition of acetonitrile which comprises an internal standard. As internal standard a substance from the same structural class is selected which is structurally as similar as possible to the active compound. For the preparation of calibration samples different concentrations of the active substance are added to aliquots of empty plasma and these are worked up together with the unknown samples. Additionally quality control samples with three different concentrations are prepared which serve to validate the analytical procedure.
The determination of the active substance in the samples takes place by high performance liquid chromatography with mass spectrometrical detection (LC/MS-MS). The active substance concentrations in the unknown samples are determined based on their relative peak heights or areas compared to the calibration curve using the program Concalc for Windows (CCW, Integrierte Labordatensysteme, version 2.5 or later, Bayer AG). Subsequently, the pharmacokinetical parameters are calculated from the plasma concentration development over time individualized to an animal using non-compartimental analysis with the aid of the program KINCALC, version 2.50.02 (Bayer AG, 2001).
The following data can be acquired from these tests:
AUC=total area under the drug-concentration over time curve;
Cmax=maximum concentration;

[4] = 3 mg/kg p.o., solution in 10% ethanol, 40% PEG 400, 50% water, 5 ml/kg

Structure (SMILES)	EC50 [1] [µM]	half-life ([3]; iv, 1.3 mg/kg i.v., solution in rat plasma with 1% DMSO, 2 ml/kg) [h]	clearance ([3]; iv, 1.3 mg/kg i.v., solution in rat plasma with 1% DMSO, 2 ml/kg, read-out: CLPlasma (converted)) [mL/min/kg]	Vd ([3]; iv, 1.3 mg/kg i.v., solution in rat plasma with 1% DMSO, 2 ml/kg, read-out: Vss) [L/kg]	CLBlood ([3]; 1.3 mg/kg i.v., solution in rat plasma with 1% DMSO, 2 ml/kg) [mL/min/kg]	AUCnorm, p.o. [3, 4] [kg·h/L]	Cmax, norm, p.o. [3, 4] [kg/L]	bioavailability ([3]; plasma, po, 3 mg/kg p.o., solution in 10% ethanol, 40% PEG 400, 50% water, 5 ml/kg, read-out: F (bioavailability)) [%]	SI HCMV [1]	CC50 at 6 days [2] [µM]
Cc1c(NC(=O)C2(C#N)CC2)cccc1NS(=O)(=O)c1ccc(-c2noc(-c3cccc(N)n3)n2)cc1 [Example 3, N-{3-[({4-[5-(6-Aminopyridin-2-yl)-1,2,4-oxadiazol-3-yl]phenyl}sulfonyl)amino]-2-methylphenyl}-1-cyanocyclopropanecarboxamide]	0.002								51000	102
CC(=O)Nc1cccc(-c2nc(-c3ccc(S(=O)(=O)Nc4cc(F)cc(NC(=O)C5(C#N)CC5)c4)cc3)no2)n1 [Example 5, N-{3-[({4-[5-(6-Acetylaminopyridin-2-yl)-1,2,4-oxadiazol-3-yl]phenyl}sulfonyl)amino]-5-fluorophenyl}-1-cyanocyclopropanecarboxamide]	0.026								2730	71

Further lines, with some results ahead:

EC50 [1] [µM]	half-life ([3]; iv, 1.3 mg/kg i.v., solution in rat plasma with 1% DMSO, 2 ml/kg) [h]	clearance ([3]; iv, 1.3 mg/kg i.v., solution in rat plasma with 1% DMSO, 2 ml/kg, read-out: CLPlasma (converted)) [mL/min/kg]	Vd ([3]; iv, 1.3 mg/kg i.v., solution in rat plasma with 1% DMSO, 2 ml/kg, read-out: Vss) [L/kg]	CLBlood ([3]; 1.3 mg/kg i.v., solution in rat plasma with 1% DMSO, 2 ml/kg) [mL/min/kg]	AUCnorm, p.o. [3, 4] [kg·h/L]	Cmax, norm, p.o. [3, 4] [kg/L]	bioavailability ([3]; plasma, po, 3 mg/kg p.o., solution in 10% ethanol, 40% PEG 400, 50% water, 5 ml/kg, read-out: F (bioavailability)) [%]	Structure (SMILES)	SI HCMV [1]	CC50 at 6 days [2] [µM]
0.011	4.26	1.07	0.321	2.13	8.58	1.08	55.3	N#CC1(C(=O)Nc2cc(F)cc(NS(=O)(=O)c3ccc(-c4noc(-c5cccc(N)n5)n4)cc3)c2)CC1 [Example 1, N-{3-[({4-[5-(6-Aminopyridin-2-yl)-1,2,4-oxadiazol-3-yl]phenyl}sulfonyl)amino]-5-fluorophenyl}-1-cyanocyclopropanecarboxamide]	6450	71
0.007								N#CC1(C(=O)Nc2cccc(NS(=O)(=O)c3ccc(-c4noc(-c5cccc(N)n5)n4)cc3)c2)CC1 [Example 2, N-{3-[({4-[5-(6-Aminopyridin-2-yl)-1,2,4-oxadiazol-3-yl]phenyl}sulfonyl)amino]phenyl}-1-cyanocyclopropanecarboxamide]	20140	141
0.021								Cl.N#CC1(C(=O)Nc2cccc(NS(=O)(=O)c3ccc(C#Cc4cccc(N)n4)cc3)c2)CC1 [Example 4, N-{3-[({4-[(6-Aminopyridin-2-yl)ethynyl]phenyl}sulfonyl)amino]phenyl}-1-cyanocyclopropanecarboxamide Hydrochloride]	2240	47
